These results are taken from paper PMC5695136 (Theranostics, 2017).

One data set has as its system PSMA+ LNCaP cells. Particulars: equal experimental set up; cited from earlier work.
Data set [1] is described as follows: First in-human PET/CT imaging. In kind it is in vivo. Particulars: mean SUV averaged over right and left side and all patients (three patients).

Regarding `O=C([O-])CN(CCN(CC(=O)[O-])Cc1cc(CCC(=O)NCCCCCC(=O)NCCCC[C@H](NC(=O)N[C@@H](CCC(=O)O)C(=O)O)C(=O)O)ccc1[O-])Cc1cc(CCC(=O)O)ccc1[O-].[68Ga+3].[OH3+]` [[^68Ga]Ga-PSMA-11], the “Internalization±SD” value in the data set with PSMA+ LNCaP cells was 9.47±2.56 %IA/10^6 cells. In data set [1], this compound came in with an SUV kidneys of 30.5.
